Several values for one entry are separate records, joined by “and”; a condition that tells them apart may be missing. Identical values can stand only once. Counter-ions that a name gives are not always drawn. Like-named read-outs stand apart in the source and are kept apart here.
Legend:
[1] = system: P. falciparum Pf3D7^0087/N9; assay: In vivo SCID mouse model, oral therapeutic efficacy; parameters: species or system Plasmodium falciparum; settings: for % control: day 7; for Activity: day 7 vs untreated control, succinate salt
Description: Compound efficacy was assessed against the Plasmodium falciparum strain Pf3D7^0087/N9 in vivo. Mice are infected intravenously with parasitized red blood cells on day 0. Experimental mice are generally treated at day 3, 4, 5, and 6 post-infection with an oral dose of the compound (single or 4-day oral dosing regimen) and are compared to an infected control group for reduction in parasitemia on day 7 (Maria Belen Jimenez-Díaz, Teresa Mulet, Sara Viera, Vanessa Gomez, Helen Garuti, Javier Ibanez, Angela Alvarez-Doval, Leonard D. Shultz, Antonio Martínez, Domingo Gargallo-Viola, and Inigo Angulo-Barturen, Improved Murine Model of Malaria Using Plasmodium falciparum Competent Strains and Non-Myelodepleted NOD-scid IL2Rgammanull Mice Engrafted with Human Erythrocytes, Antimicrob Agents Chemother. 2009, 53:4533).
PYRO and M1 were solubilized in a vehicle consisting of 70% Tween-80 and 30% ethanol, followed by a 10-fold dilution in H2O.

[2] = In vitro permeability in Caco-2 cells; type: in vitro ADME; settings: human
Description: (§1) Caco-2 cells are maintained in DMEM in an atmosphere of 8.5% CO2. For transport experiments 0.125×10^6 cells/well of are seeded on polycarbonate filter inserts and are allowed to grow and differentiate for 14±1 days before the cell monolayers are used for experiments. Drug transport experiments are carried out using a cocktail approach in a four-dimensional setting. […] […] The assays are performed in HBSS containing 25 mM HEPES (pH 7.4) in an atmosphere of 5% CO2 at 37° C. Prior to the study, the monolayers are washed in pre-warmed HBSS. At the start of the experiments pre-warmed HBSS containing the test items is added to the donor side of the monolayer and HBSS without test items is added to the receiver side. The plates are shaken at 150 rpm at 37° C. during the experiment. After 2 h the Transwell insert containing the monolayer is carefully removed and placed in a new plate and aliquots of both the receiver and donor sides were taken and diluted with an equal volume of acetonitrile containing the internal standard. The mixture is centrifuged and supernatant analyzed by LC-MS/MS. The apparent permeability coefficients (Papp) are calculated using the formula: Papp=[Vrec/(A×C0,donor)](dCrec/dt)×10^6 with dCrev/dt being the change in concentration in the receiver compartment with time, Vrec the volume of the sample in the receiver compartment, C0, donor the concentration in the donor compartment at time 0, and A the area of the compartment with the cells.

Caco-2 cells = assay: In vitro permeability in Caco-2 cells; type: in vitro ADME; settings: pH 7.4/7.4, Table 8
Description: as §1

[3] = M1 4 × 0.2 MG/KG oral, SCID mice, Table 3
[4] = M1 4 × 0.4 MG/KG oral, SCID mice, Table 3
[5] = M1 4 × 0.6 MG/KG oral, SCID mice, Table 3
[6] = M1 4 × 1.2 MG/KG oral, SCID mice, Table 3
[7] = Table 4 entry 2: M1 4 × 1.2 mg/kg, PYRO 0 mg/kg, oral

O=C(NCCN1CCCC1)c1cc(-c2ccc(CN3CCOCC3)cc2)nc2ccc(F)cc12 [M1, 6-fluoro-2-(4-morpholin-4-ylmethyl-phenyl)-quinoline-4-carboxylic acid (2-pyrrolidin-1-yl-ethyl)amide succinate salt]
% PARASITEMIA day 3 post infection [1, 3]: 0.85%
% PARASITEMIA day 4 post infection [1, 3]: 1.33%
% PARASITEMIA day 5 post infection [1, 3]: 3.10%
% PARASITEMIA day 6 post infection [1, 3]: 3.35%
% PARASITEMIA day 7 post infection [1, 3]: 6.55%
% control ([1]; M1 4 × 0.2 MG/KG oral, SCID mice): 71.7%
Activity ([1]; M1 4 × 0.2 MG/KG oral, SCID mice, 0.2 mg/kg): 28.3%
% PARASITEMIA day 3 post infection [1, 4]: 0.70%
% PARASITEMIA day 4 post infection [1, 4]: 1.38%
% PARASITEMIA day 5 post infection [1, 4]: 1.18%
% PARASITEMIA day 6 post infection [1, 4]: 0.75%
% PARASITEMIA day 7 post infection [1, 4]: 0.55%
% control ([1]; M1 4 × 0.4 MG/KG oral, SCID mice): 6.0%
Activity ([1]; M1 4 × 0.4 MG/KG oral, SCID mice, 0.4 mg/kg): 94.9% and 94.0%
% PARASITEMIA day 3 post infection [1, 5]: 0.63%
% PARASITEMIA day 4 post infection [1, 5]: 0.70%
% PARASITEMIA day 5 post infection [1, 5]: 0.60%
% PARASITEMIA day 6 post infection [1, 5]: 0.13%
% PARASITEMIA day 7 post infection [1, 5]: 0.03%
% control ([1]; M1 4 × 0.6 MG/KG oral, SCID mice): 0.3%
Activity ([1]; M1 4 × 0.6 MG/KG oral, SCID mice, 0.6 mg/kg): 99.7%
% PARASITEMIA day 3 post infection [1, 6]: 0.50%
% PARASITEMIA day 4 post infection [1, 6]: 0.75%
% PARASITEMIA day 5 post infection [1, 6]: 0.43%
% PARASITEMIA day 6 post infection [1, 6]: 0.05%
% PARASITEMIA day 7 post infection ([1]; M1 4 × 1.2 MG/KG oral, SCID mice, Table 3, LLQ = <0.01% parasitemia): <LLQ
% control ([1]; M1 4 × 1.2 MG/KG oral, SCID mice, LLQ = <0.01% parasitemia): <LLQ
Activity ([1]; M1 4 × 1.2 MG/KG oral, SCID mice, 1.2 mg/kg): 100%
ED90 ([1]; M1, 4-day oral dosing, SCID mice, dose as free base): 0.37 mg/kg
% PARASITEMIA day 3 post infection [1, 7]: 0.99%
% PARASITEMIA day 4 post infection [1, 7]: 1.04%
% PARASITEMIA day 5 post infection [1, 7]: 0.7%
% PARASITEMIA day 6 post infection [1, 7]: 0.12%
% PARASITEMIA day 7 post infection [1, 7]: 0.01%
% PARASITEMIA day 10 post infection ([1]; Table 4 entry 2: M1 4 × 1.2 mg/kg, PYRO 0 mg/kg, oral, LLQ = <0.01% parasitemia): <LLQ
efflux ratio at 2 h, 1 μM ([2]; Caco-2, pH 7.4, PYRO 0 μM, pH 7.4/7.4, Table 8): 15.4
efflux ratio at 2 h, 1 μM ([2]; Caco-2, pH 7.4, no P-gp inhibitor, pH 7.4/7.4, Table 7): 18.2
recovery at 2 h, 1 μM ([2]; Caco-2, pH 7.4, no P-gp inhibitor, pH 7.4/7.4, Table 7, read-out: RECOVERY apical to basolateral (A-B)): 79.8%
recovery at 2 h, 1 μM ([2]; Caco-2, pH 7.4, no P-gp inhibitor, pH 7.4/7.4, Table 7, read-out: RECOVERY basolateral to apical (B-A)): 65.4%
recovery at 2 h, 1 μM ([2]; Caco-2, pH 7.4, with Cyclosporine A 10 μM, with Cyclosporine A 10 μM, pH 7.4/7.4, Table 7, read-out: RECOVERY apical to basolateral (A-B)): 72.5%
recovery at 2 h, 1 μM ([2]; Caco-2, pH 7.4, with Cyclosporine A 10 μM, with Cyclosporine A 10 μM, pH 7.4/7.4, Table 7, read-out: RECOVERY basolateral to apical (B-A)): 86.3%
efflux ratio at 2 h, 1 μM ([2]; Caco-2, pH 7.4, with PYRO 0.3 μM, PYRO 0.3 μM, pH 7.4/7.4, Table 8): 10.1
efflux ratio at 2 h, 1 μM ([2]; Caco-2, pH 7.4, with PYRO 1 μM, PYRO 1 μM, pH 7.4/7.4, Table 8): 14.5
efflux ratio at 2 h, 1 μM ([2]; Caco-2, pH 7.4, with PYRO 3 μM, PYRO 3 μM, pH 7.4/7.4, Table 8): 10.2
efflux ratio at 2 h, 1 μM ([2]; Caco-2, pH 7.4, with PYRO 10 μM, PYRO 10 μM, pH 7.4/7.4, Table 8): 11
efflux ratio at 2 h, 1 μM ([2]; Caco-2, pH 7.4, with PYRO 30 μM, PYRO 30 μM, pH 7.4/7.4, Table 8): 5.06
efflux ratio at 2 h, 1 μM ([2]; Caco-2, pH 7.4, with PYRO 100 μM, PYRO 100 μM, pH 7.4/7.4, Table 8): 2.42
Papp at 2 h, 1 μM ([2]; Caco-2, with PYRO 0.3 μM, PYRO 0.3 μM, pH 7.4/7.4, Table 8): 9.74 ×10⁻⁶ cm/s
Papp A→B at 2 h, 1 μM ([2]; Caco-2, with PYRO 0.3 μM, PYRO 0.3 μM, pH 7.4/7.4, Table 8, read-out: PAPP (A-B)): 3.07 ×10⁻⁶ cm/s
Papp at 2 h, 1 μM ([2]; Caco-2, with PYRO 1 μM, PYRO 1 μM, pH 7.4/7.4, Table 8): 8.25 ×10⁻⁶ cm/s
Papp A→B at 2 h, 1 μM ([2]; Caco-2, with PYRO 1 μM, PYRO 1 μM, pH 7.4/7.4, Table 8, read-out: PAPP (A-B)): 2.17 ×10⁻⁶ cm/s
Papp B→A at 2 h, 1 μM ([2]; Caco-2, with PYRO 1 μM, PYRO 1 μM, pH 7.4/7.4, Table 8, read-out: PAPP (B-A)): 31.4 ×10⁻⁶ cm/s
Papp at 2 h, 1 μM ([2]; Caco-2, with PYRO 3 μM, PYRO 3 μM, pH 7.4/7.4, Table 8): 12.3 ×10⁻⁶ cm/s
Papp A→B at 2 h, 1 μM ([2]; Caco-2, with PYRO 3 μM, PYRO 3 μM, pH 7.4/7.4, Table 8, read-out: PAPP (A-B)): 3.85 ×10⁻⁶ cm/s
Papp B→A at 2 h, 1 μM ([2]; Caco-2, with PYRO 3 μM, PYRO 3 μM, pH 7.4/7.4, Table 8, read-out: PAPP (B-A)): 39.1 ×10⁻⁶ cm/s
Papp at 2 h, 1 μM ([2]; Caco-2, with PYRO 10 μM, PYRO 10 μM, pH 7.4/7.4, Table 8): 11.3 ×10⁻⁶ cm/s
Papp A→B at 2 h, 1 μM ([2]; Caco-2, with PYRO 10 μM, PYRO 10 μM, pH 7.4/7.4, Table 8, read-out: PAPP (A-B)): 3.42 ×10⁻⁶ cm/s
Papp B→A at 2 h, 1 μM ([2]; Caco-2, with PYRO 10 μM, PYRO 10 μM, pH 7.4/7.4, Table 8, read-out: PAPP (B-A)): 37.6 ×10⁻⁶ cm/s
Papp at 2 h, 1 μM ([2]; Caco-2, with PYRO 30 μM, PYRO 30 μM, pH 7.4/7.4, Table 8): 16.4 ×10⁻⁶ cm/s
Papp A→B at 2 h, 1 μM ([2]; Caco-2, with PYRO 30 μM, PYRO 30 μM, pH 7.4/7.4, Table 8, read-out: PAPP (A-B)): 7.29 ×10⁻⁶ cm/s
Papp B→A at 2 h, 1 μM ([2]; Caco-2, with PYRO 30 μM, PYRO 30 μM, pH 7.4/7.4, Table 8, read-out: PAPP (B-A)): 36.9 ×10⁻⁶ cm/s
Papp at 2 h, 1 μM ([2]; Caco-2, with PYRO 100 μM, PYRO 100 μM, pH 7.4/7.4, Table 8): 30 ×10⁻⁶ cm/s
Papp A→B at 2 h, 1 μM ([2]; Caco-2, with PYRO 100 μM, PYRO 100 μM, pH 7.4/7.4, Table 8, read-out: PAPP (A-B)): 19.3 ×10⁻⁶ cm/s
Papp B→A at 2 h, 1 μM ([2]; Caco-2, with PYRO 100 μM, PYRO 100 μM, pH 7.4/7.4, Table 8, read-out: PAPP (B-A)): 46.7 ×10⁻⁶ cm/s
Papp at 2 h, 1 μM ([2]; Caco-2, with none (PYRO 0 μM), PYRO 0 μM, pH 7.4/7.4, Table 8): 7.8 ×10⁻⁶ cm/s
Papp A→B at 2 h, 1 μM ([2]; Caco-2, with none (PYRO 0 μM), PYRO 0 μM, pH 7.4/7.4, Table 8, read-out: PAPP (A-B)): 2 ×10⁻⁶ cm/s
Papp B→A at 2 h, 1 μM ([2]; Caco-2, with none (PYRO 0 μM), PYRO 0 μM, pH 7.4/7.4, Table 8, read-out: PAPP (B-A)): 30.6 ×10⁻⁶ cm/s
Papp A→B at 2 h, 1 μM ([2]; Caco-2, with none (no P-gp inhibitor), no P-gp inhibitor, pH 7.4/7.4, Table 7, read-out: PAPP apical to basolateral (A-B)): 2.97 ×10⁻⁶ cm/s
Papp B→A at 2 h, 1 μM ([2]; Caco-2, with none (no P-gp inhibitor), no P-gp inhibitor, pH 7.4/7.4, Table 7, read-out: PAPP basolateral to apical (B-A)): 54.2 ×10⁻⁶ cm/s
PAPP (A-B) (Caco-2 cells; PYRO 0 μM): 2.00 10E−6 CM/S
PAPP (B-A) (Caco-2 cells; PYRO 0.3 μM): 30.90 10E−6 CM/S
PAPP (A-B) (Caco-2 cells; PYRO 100 μM): 19.3 10E−6 CM/S
